This passage reports IC50 results from patent publication US12187728B2 (Raze Therapeutics, Inc., priority 2015, dated 2025).

The experiment deals with T1, Human MTHFD2 (Homo sapiens, UniProt P13995).
T1 construct: residues 36-350 in Uniport ID P13995; His6 (N); made in house; host or cells: E. coli
T1 sequence (P13995 36-350): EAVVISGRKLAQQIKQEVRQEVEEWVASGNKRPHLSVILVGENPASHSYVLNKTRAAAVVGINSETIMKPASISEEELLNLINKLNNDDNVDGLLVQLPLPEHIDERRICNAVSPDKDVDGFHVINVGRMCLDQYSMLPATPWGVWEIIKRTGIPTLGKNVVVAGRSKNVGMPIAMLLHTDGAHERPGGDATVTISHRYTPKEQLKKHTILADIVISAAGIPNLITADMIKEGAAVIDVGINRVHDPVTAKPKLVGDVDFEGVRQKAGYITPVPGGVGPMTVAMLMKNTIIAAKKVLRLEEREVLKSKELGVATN
Kind of experiment: MTHFD2 Activity Assay (dehydrogenase activity, diaphorase/resazurin coupled fluorescence). It is filed as biochemical. Conditions: inhibitory activity (IC50 and/or binding constant); 0.2 nM MTHFD2, 11 concentrations. The source says: Human MTHFD2 (residues 36-350 in Uniport ID P13995) was expressed as an N-terminal His6 tagged protein and purified in E. coli using nickel capture followed by size-exclusion chromatography.
MTHFD2 dehydrogenase activity oxidizes methylene tetrahyrofolate to methenyl-tetrahydrofolate with the concomitant reduction of NAD to NADH. MTHFD2 dehydrogenase activity was followed by coupling the generation of NADH to diaphorase catalyzed […] of resazurin to fluorescent resorufin. Briefly, control (DMSO) or compound was incubated with 0.2 nM MTHFD2 for 15 minutes in 10.5 μl assay buffer containing 100 mM Hepes, pH 8.0, 5 mM MgCl2, 5 mM KH2PO4, 0.05% BSA, 0.01% Tween-20 in a 384 well Griener, low volume, black plate. 10 μl of substrate buffer containing 70 μM CH2-THF, 1 mM NAD^+, 100 μM Resazurin and 0.42 mg/ml diaphorase was then added to initiate the reaction and the reaction plate was incubated for 30 minutes. 5 μl of 250 mM EDTA was then added to each well to stop the reaction and MTHFD2 activity was quantified by measuring resorufin fluorescence emission at 598 nm following excitation at 525 nm. Activity in positive control wells containing the complete reaction mixture and DMSO alone was set to 100% while activity in negative control wells with the complete reaction mix without MTHFD2 was set to 0%. 11 concentrations of each compound were tested and the fluorescent data at each concentration was normalized to the positive and negative controls and represented as % inhibition. Median inhibitory concentration (IC50) was calculated by fitting % inhibition at each concentration to a 4 parameter logistic fit equation using Graphpad Prizm.
The compound numbers correspond to the compound numbers in Table A (i.e., the example numbers).
The molecule `CCOC(=O)Cn1c(=O)n(Cc2ccc(Cl)c(Cl)c2)c(=O)c2c1nc(NCCCO)n2C` [Example 98, Ethyl 2-(1-(3,4-dichlorobenzyl)-8-((3-hydroxypropyl)amino)-7-methyl-2,6-dioxo-1,2,6,7-tetrahydro-3H-purin-3-yl)acetate] displayed an IC50 of 5 to 10 µM.

As for `C[C@H](N)c1nc2c(c(=O)n(Cc3cc4c(Cl)cccc4[nH]3)c(=O)n2C)n1C` (single isomer, unassigned) [Example 435, (S)-8-(1-aminoethyl)-1-((4-chloro-1H-indol-2-yl)methyl)-3,7-dimethyl-1H-purine-2,6(3H,7H)-dione or (R)-8-(1-aminoethyl)-1-((4-chloro-1H-indol-2-yl)methyl)-3,7-dimethyl-1H-purine-2,6(3H,7H)-dione], the concentration for half-maximal inhibition (IC50) lay in the range of 0.01 to 1 µM.

Consider `Cn1c(Cn2c(=O)c3c(nc(Nc4cc[nH]c(=O)n4)n3C)n(C)c2=O)cc2cc(Cl)ccc21` [Example 224, 1-((5-chloro-1-methyl-1H-indol-2-yl)methyl)-3,7-dimethyl-8-(2-oxo-1,2-dihydropyrimidin-4-ylamino)-1H-purine-2,6(3H,7H)-dione], for which the IC50 was in the range of 0.01 to 1 µM.

Turning to `C[C@@H](O)CNc1nc2c(c(=O)n(Cc3ccc(Cl)c(Cl)c3)c(=O)n2C)n1C` [Example 9, 1-[(3,4-dichlorophenyl)methyl]-8-{[(2R)-2-hydroxypropyl]amino}-3,7-dimethyl-2,3,6,7-tetrahydro-1H-purine-2,6-dione], the 50% inhibitory concentration (IC50) is 0.01 to 1 µM.

The molecule `COc1nc2c(c(=O)n(Cc3cc4cccc(Cl)c4[nH]3)c(=O)n2C)n1C` [Example 421, 1-[(7-chloro-1H-indol-2-yl)methyl]-8-methoxy-3,7-dimethyl-purine-2,6-dione] yielded an IC50 of 0.01 to 1 µM.

As to `Cn1c(Nc2ccc(CC(=O)O)cc2)nc2c1c(=O)n(Cc1ccc(Cl)c(Cl)c1)c(=O)n2C` [Example 288, 2-(4-((1-(3,4-dichlorobenzyl)-3,7-dimethyl-2,6-dioxo-2,3,6,7-tetrahydro-1H-purin-8-yl)amino)phenyl)acetic acid], the concentration for half-maximal inhibition (IC50) lay in the range of 0.01 to 1 µM.

In turn, `COCC1CCC(Nc2nc3c(c(=O)n(Cc4ccc(Cl)c(Cl)c4)c(=O)n3C)n2C)C1` (stereo not shown) [Example 267, 1-(3,4-dichlorobenzyl)-8-(3-(methoxymethyl)cyclopentylamino)-3,7-dimethyl-1H-purine-2,6(3H,7H)-dione] came in with an IC50 of 1 to 5 µM.

The molecule `C[C@@H](O)CNc1nc2c(c(=O)n(Cc3ccc(Cl)c(F)c3)c(=O)n2C)n1C` [Example 24, 1-[(4-chloro-3-fluorophenyl)methyl]-8-{[(2R)-2-hydroxypropyl]amino}-3,7-dimethyl-2,3,6,7-tetrahydro-1H-purine-2,6-dione] returned an IC50 of 5 to 10 µM.

`Cn1c(Nc2cccc(CCC(N)=O)n2)nc2c1c(=O)n(Cc1cc3c(Cl)cccc3[nH]1)c(=O)n2C` [Example 304, 3-(6-(1-((4-chloro-1H-indol-2-yl)methyl)-3,7-dimethyl-2,6-dioxo-2,3,6,7-tetrahydro-1H-purin-8-ylamino)pyridin-2-yl)propanamide] registered a half-inhibitory concentration (IC50) of 0.01 to 1 µM.

`Cn1c(Nc2cc[nH]n2)nc2c1c(=O)n(Cc1ccc(Cl)c(Cl)c1)c(=O)n2C` [Example 141, 8-(1H-pyrazol-3-ylamino)-1-(3,4-dichlorobenzyl)-3,7-dimethyl-1H-purine-2,6(3H,7H)-dione] registered a half-maximal inhibitory concentration (IC50) of 1 to 5 µM.

As to `CN(C)C(=O)CCc1cccc(Nc2nc3c(c(=O)n(Cc4cc5c(Cl)cccc5[nH]4)c(=O)n3C)n2C)n1` [Example 329, 3-(6-(1-((4-chloro-1H-indol-2-yl)methyl)-3,7-dimethyl-2,6-dioxo-2,3,6,7-tetrahydro-1H-purin-8-ylamino)pyridin-2-yl)-N,N-dimethylpropanamide], the IC50 was in the range of 0.01 to 1 µM.

For `Cn1c(N2CCC(N)C2)nc2c1c(=O)n(Cc1cc3c(Cl)cccc3[nH]1)c(=O)n2C` (stereo not shown) [Example 376], the IC50 was 0.01 to 1 µM.

With `Cn1c(CCO)nc2c1c(=O)n(Cc1cc3cc(Cl)ccc3[nH]1)c(=O)n2C` [Example 223, 1-((5-chloro-1H-indol-2-yl)methyl)-8-(2-hydroxyethyl)-3,7-dimethyl-1H-purine-2,6(3H,7H)-dione], the IC50 lay within 1 to 5 µM.

`Cn1c(Nc2ccc3c(c2)NC(=O)CCC3)nc2c1c(=O)n(Cc1ccc(Cl)c(Cl)c1)c(=O)n2C` [Example 109, 1-(3,4-dichlorobenzyl)-3,7-dimethyl-8-(2-oxo-2,3,4,5-tetrahydro-1H-benzo[b]azepin-8-ylamino)-1H-purine-2,6(3H,7H)-dione] yielded an IC50 of 0.01 to 1 µM.

On to `Cn1c(N[C@@H]2CC[C@H](CO)C2)nc2c1c(=O)n(Cc1ccc(Cl)c(Cl)c1)c(=O)n2C` [Example 276, 1-(3,4-dichlorobenzyl)-8-((1R,3S)-3-(hydroxymethyl)cyclopentylamino)-3,7-dimethyl-1H-purine-2,6(3H,7H)-dione], for which the half-maximal inhibitory concentration (IC50) fell in the range of 0.01 to 1 µM.

For `C[C@@H](O)CNc1nc2c(c(=O)n(Cc3ccc(C(F)(F)F)cc3)c(=O)n2C)n1C` [Example 57, 8-{[(2R)-2-hydroxypropyl]amino}-3,7-dimethyl-1-{[4-(trifluoromethyl)phenyl]methyl}-2,3,6,7-tetrahydro-1H-purine-2,6-dione], the IC50 fell in the range of 5 to 10 µM.

Molecule `Cn1c(Nc2ccnc(CCC(=O)N3CCOCC3)n2)nc2c1c(=O)n(Cc1cc3c(Cl)cccc3[nH]1)c(=O)n2C` [Example 416, 1-((4-chloro-1H-indol-2-yl)methyl)-3,7-dimethyl-8-((2-(3-morpholino-3-oxopropyl)pyrimidin-4-yl)amino)-3,7-dihydro-1H-purine-2,6-dione] had an IC50 of 0.01 to 1 µM.

Consider `Cn1c(Nc2cc[nH]c(=O)n2)nc2c1c(=O)n(Cc1ccc(Cl)c(Cl)c1)c(=O)n2C` [Example 140, 1-(3,4-dichlorobenzyl)-3,7-dimethyl-8-(2-oxo-1,2-dihydropyrimidin-4-ylamino)-1H-purine-2,6(3H,7H)-dione], for which the IC50 lay within 0.01 to 1 µM.

Regarding `Cn1c(Nc2ccccn2)nc2c1c(=O)n(Cc1cc3c(Cl)cccc3[nH]1)c(=O)n2C` [Example 302, 1-((4-chloro-1H-indol-2-yl)methyl)-3,7-dimethyl-8-(pyridin-2-ylamino)-1H-purine-2,6(3H, 7H)-dione], the IC50 fell in the range of 0.01 to 1 µM.

In turn, `C[C@H](CCO)Nc1nc2c(c(=O)n(Cc3ccc(Cl)cc3)c(=O)n2C)n1C` [Example 26, 1-[(4-chlorophenyl)methyl]-8-{[(2R)-4-hydroxybutan-2-yl]amino}-3,7-dimethyl-2,3,6,7-tetrahydro-1H-purine-2,6-dione] returned an IC50 of 1 to 5 µM.

`Cn1c(NC2CC(F)(F)C2)nc2c1c(=O)n(Cc1ccc(C(F)(F)F)cc1)c(=O)n2C` [Example 145, 8-(3,3-difluorocyclobutylamino)-3,7-dimethyl-1-(4-(trifluoromethyl)benzyl)-1H-purine-2,6(3H,7H)-dione] came in with an IC50 of over 10 µM.

`Cn1c(N[C@@H]2CCCC[C@H]2O)nc2c1c(=O)n(Cc1ccc(C(F)(F)F)cc1)c(=O)n2C` [Example 113, 8-((1R,2R)-2-hydroxycyclohexylamino)-3,7-dimethyl-1-(4-(trifluoromethyl)benzyl)-1H-purine-2,6(3H,7H)-dione]: the half-maximal inhibitory concentration (IC50) is over 10 µM.

As for `Cn1c(N[C@H]2CCC(=O)NC2)nc2c1c(=O)n(Cc1ccc(Cl)c(Cl)c1)c(=O)n2C` (single isomer, unassigned) [Example 82, (S)-1-(3,4-dichlorobenzyl)-3,7-dimethyl-8-(6-oxopiperidin-3-ylamino)-1H-purine-2,6(3H,7H)-dione or (R)-1-(3,4-dichlorobenzyl)-3,7-dimethyl-8-(6-oxopiperidin-3-ylamino)-1H-purine-2,6(3H,7H)-dione], the half-inhibitory concentration (IC50) was in the range of 0.01 to 1 µM.

In the case of `Cn1c(/C(=N/O)c2ccncc2)nc2c1c(=O)n(Cc1cc3c(Cl)cccc3[nH]1)c(=O)n2C` [Example 468, (E)-1-((4-chloro-1H-indol-2-yl)methyl)-8-((hydroxyimino)(pyridin-4-yl)methyl)-3,7-dimethyl-1H-purine-2,6(3H,7H)-dione or (Z)-1-((4-chloro-1H-indol-2-yl)methyl)-8-((hydroxyimino)(pyridin-4-yl)methyl)-3,7-dimethyl-1H-purine-2,6(3H,7H)-dione], the IC50 was in the range of 0.01 to 1 µM.

With `Cn1c(Nc2cccc(N)n2)nc2c1c(=O)n(Cc1ccc(Cl)c(Cl)c1)c(=O)n2C` [Example 150, 8-(6-aminopyridin-2-ylamino)-1-(3,4-dichlorobenzyl)-3,7-dimethyl-1H-purine-2,6(3H,7H)-dione], the half-maximal inhibitory concentration (IC50) is 0.01 to 1 µM.
